Test systems include NCI-H23; EKVX; SK-MEL-5; HL-60; IGROV-1; UACC-257; RXF 393; KM12; MDA-MB-435; HOP-92; OVCAR-5; HCT-15; UO-31; Malme-3M; RPMI-8226; SF-295; HCC 2998; SF-268; HT-29; SNB-75.
Test in all cases: DTP human tumour cell line panel, 48 h

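A five-concentration, 48-hour dose response in 96-well plates underlies each endpoint, interpolated linearly between surrounding concentrations. GI50: concentration for 50% inhibition of growth.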 Active and inactive are the calls of the source. Rule as the data show it: active = GI50 up to about 1.1 µM and inactive = higher. Where a SMILES comes first, the peptide text is derived from it. [ ]: non-standard residue; d: D form. 2Nal = N[CH](Cc1ccc2ccccc2c1)C(=O)O

By GI50 is commonly meant the concentration at which growth is held to half of that of the control. `N=C(N)C(/N=N\c1ccccc1)C(=N)N` (stereo not drawn): the GI50 in the assay with NCI-H23 was 50.4 µM (inactive); in the assay with EKVX it was 38.8 µM (inactive); with SK-MEL-5 it was 28 µM (inactive); in the assay on HL-60, 24.7 µM (inactive); with IGROV-1, 33.2 µM (inactive); with UACC-257, 33.7 µM (inactive). Moreover, the GI50 in the assay on RXF 393 was > 100 µM (inactive); in the assay with KM12, 29.4 µM (inactive); with MDA-MB-435, 16.9 µM (inactive); in the assay on HOP-92, 20.3 µM (inactive); in the assay on OVCAR-5 it was 49.7 µM (inactive); with HCT-15, 49.8 µM. The GI50 with UO-31 is 30.5 µM (inactive); in the assay on Malme-3M, 51.1 µM (inactive); with RPMI-8226, 27.9 µM (inactive); with SF-295, 32.9 µM (inactive); in the assay on HCC 2998 it was 16.5 µM (inactive); in the assay with SF-268 it was 59.6 µM (inactive). The GI50 with HT-29 is 29.8 µM (inactive).

For `Nc1cccnc1NCC1(CO)CCCC1`, the GI50 with NCI-H23, in the assay with EKVX, in the assay on SK-MEL-5, in the assay with HL-60, in the assay with IGROV-1 and with UACC-257 was > 100 µM (inactive) in each case. For the same compound, the GI50 is > 100 µM (inactive) in the assay with RXF 393; > 100 µM (inactive) with KM12; > 100 µM (inactive) in the assay on MDA-MB-435; > 100 µM (inactive) in the assay on OVCAR-5; greater than 100 µM in the assay with HCT-15; > 100 µM (inactive) in the assay with SNB-75. Besides, the GI50 in the assay on UO-31, with Malme-3M, with RPMI-8226, in the assay with SF-295, in the assay with HCC 2998 and in the assay on SF-268 was > 100 µM (inactive) in each case. In addition, in the assay with HT-29, the GI50 is > 100 µM (inactive).

Turning to `COc1cc2c(cc1OC)C(=O)N(c1ccc(OCCN3CCCC3)cc1)C2`, the GI50 with NCI-H23, in the assay on EKVX, in the assay on SK-MEL-5, in the assay on HL-60, in the assay with IGROV-1 and in the assay on UACC-257 was > 100 µM (inactive) each time. Also, the GI50 in the assay on RXF 393 is > 100 µM (inactive); in the assay with KM12, > 100 µM (inactive); with MDA-MB-435, > 100 µM (inactive); in the assay on HOP-92, > 100 µM (inactive); in the assay with OVCAR-5 it was > 100 µM (inactive); with HCT-15 it was greater than 100 µM. The GI50 with Malme-3M, in the assay on RPMI-8226, with SF-295, with HCC 2998, with SF-268 and with HT-29 was > 100 µM (inactive) in each case.

For `Cc1cc(OC(=O)Nc2ccc(Cl)cc2)ccc1C(=S)Nc1ccccc1`, the GI50 was 60.3 µM (inactive) in the assay with EKVX; 28 µM (inactive) in the assay on SK-MEL-5; 14 µM (inactive) in the assay on HL-60; > 100 µM (inactive) with IGROV-1; 23.2 µM (inactive) in the assay on UACC-257; 8.93 µM (inactive) with KM12. Also, the GI50 in the assay with MDA-MB-435 is 54 µM (inactive); in the assay on HOP-92, > 100 µM (inactive); in the assay on OVCAR-5, 57 µM (inactive); in the assay with HCT-15 it was 68.1 µM; in the assay with SNB-75, 49.9 µM (inactive); in the assay with UO-31, 73.5 µM (inactive). Also, the GI50 is 53 µM (inactive) in the assay with Malme-3M; > 100 µM (inactive) with RPMI-8226; 38.5 µM (inactive) with SF-295; 26.3 µM (inactive) in the assay on HCC 2998; 47.9 µM (inactive) in the assay with SF-268; 24.5 µM (inactive) in the assay on HT-29.

Consider `[O-]/[N+](=N\c1ccccc1CO)c1ccccc1CO`, for which the GI50 with NCI-H23, in the assay with EKVX, in the assay with SK-MEL-5, in the assay on HL-60, in the assay with UACC-257 and in the assay with RXF 393 was > 100 µM (inactive) in each case. Also, the GI50 with KM12 is > 100 µM (inactive); in the assay on MDA-MB-435, > 100 µM (inactive); in the assay on OVCAR-5 it was > 100 µM (inactive); in the assay with HCT-15 it was greater than 100 µM; in the assay on SNB-75 it was 84.7 µM (inactive); in the assay on UO-31, > 100 µM (inactive). For the same compound, the GI50 in the assay with Malme-3M, in the assay on RPMI-8226, in the assay on HCC 2998, in the assay with SF-268 and with HT-29 was > 100 µM (inactive) in each case.

With `C[C@@]12CCC3C1C=C1C(=O)c4cc(O)ccc4C(=O)[C@]1(O2)[C@@]3(C)C=O`, the GI50 in the assay on NCI-H23 was 3.93 µM (inactive); with EKVX, 9.71 µM (inactive); with SK-MEL-5, 7.29 µM (inactive); in the assay with HL-60, 1.42 µM (inactive); with IGROV-1, 5.55 µM (inactive); in the assay with UACC-257, 9.16 µM (inactive). The GI50 was 4.3 µM (inactive) with RXF 393; 4.79 µM (inactive) in the assay on KM12; 3.15 µM (inactive) in the assay with MDA-MB-435; 10.3 µM (inactive) with HOP-92; 13.7 µM (inactive) in the assay on OVCAR-5; 2.66 µM in the assay with HCT-15. In addition, the GI50 with UO-31 was 4.9 µM (inactive); in the assay with RPMI-8226, 2.2 µM (inactive); in the assay on SF-295 it was 11.5 µM (inactive); in the assay with HCC 2998, 2.97 µM (inactive); in the assay with SF-268, 9.91 µM (inactive); in the assay on HT-29, 4.67 µM (inactive).

For the compound `O=C(NCCNCCNC(=O)C(F)(F)F)C(F)(F)F`, the GI50 in the assay on NCI-H23, in the assay on EKVX, with SK-MEL-5, in the assay with HL-60, in the assay on IGROV-1 and with UACC-257 was > 100 µM (inactive) in each case. Besides, the GI50 in the assay on RXF 393 was > 100 µM (inactive); in the assay with KM12, > 100 µM (inactive); with MDA-MB-435, > 100 µM (inactive); with OVCAR-5, > 100 µM (inactive); in the assay on HCT-15, greater than 100 µM; in the assay on UO-31, > 100 µM (inactive). The GI50 in the assay on Malme-3M, with RPMI-8226, in the assay with SF-295, with HCC 2998, in the assay on SF-268 and in the assay on HT-29 was > 100 µM (inactive) throughout.

For the compound `CC[C@H]1C=CCC[C@@]2(C[C@@H]3CC[C@H]4[C@@H](C(=O)OCCCCCCCCCCCCCCCC(=O)N(CCCN)C[C@@H](O)CCN)[C@@]5(CCC[C@@H](C)O5)NC(=[N+]34)N2)O1`, the GI50 in the assay with NCI-H23 is 1.78 µM (inactive); with EKVX it was 1.76 µM (inactive); in the assay on SK-MEL-5, 1.47 µM (inactive); in the assay with HL-60 it was 2.14 µM (inactive); in the assay on IGROV-1, 1.74 µM (inactive); in the assay with UACC-257, 1.75 µM (inactive). For the same compound, the GI50 with RXF 393 is 1.8 µM (inactive); with KM12 it was 1.57 µM (inactive); in the assay on MDA-MB-435 it was 1.55 µM (inactive); in the assay on HOP-92, 1.87 µM (inactive); in the assay on OVCAR-5, 1.63 µM (inactive); with HCT-15, greater than 10 µM. Also, the GI50 with UO-31 is 9.18 µM (inactive); in the assay with Malme-3M it was 1.67 µM (inactive); in the assay on RPMI-8226, 1.07 µM (active); in the assay with SF-295 it was 1.9 µM (inactive); with HCC 2998, 1.73 µM (inactive); in the assay on SF-268, 1.93 µM (inactive). Further, in the assay with HT-29, the GI50 was 1.61 µM (inactive).

For the compound `COC(=O)C1=C(C(=O)OC)C2(C)CCC(=O)C1O2` (stereo not drawn), the GI50 with NCI-H23, with EKVX, with SK-MEL-5, in the assay with HL-60, with IGROV-1 and with UACC-257 was > 10 µM (inactive) throughout. Also, the GI50 in the assay with RXF 393 is > 10 µM (inactive); in the assay on KM12 it was > 10 µM (inactive); in the assay with MDA-MB-435, > 10 µM (inactive); in the assay with OVCAR-5, > 10 µM (inactive); with HCT-15 it was greater than 10 µM; in the assay on SNB-75, 2.7 µM (inactive). Moreover, the GI50 in the assay with UO-31, in the assay on Malme-3M, with RPMI-8226, in the assay with SF-295, in the assay on HCC 2998 and in the assay on SF-268 was > 10 µM (inactive) in each case. Besides, the GI50 in the assay on HT-29 was > 10 µM (inactive).

As to `O=[Se](O)O`, the GI50 is 3.72 µM (inactive) in the assay with NCI-H23; 2.11 µM (inactive) in the assay with EKVX; 2.33 µM (inactive) with SK-MEL-5; 10.4 µM (inactive) in the assay on HL-60; 0.826 µM (active) in the assay with IGROV-1; 12.6 µM (inactive) in the assay with UACC-257. Moreover, the GI50 in the assay with RXF 393 is 3.76 µM (inactive); with KM12, 1.63 µM (inactive); in the assay with MDA-MB-435, 3.77 µM (inactive); with OVCAR-5 it was 1.95 µM (inactive); with HCT-15 it was 3.15 µM; in the assay on SNB-75 it was 1.49 µM (inactive). For the same compound, the GI50 in the assay with UO-31 is 2.95 µM (inactive); with Malme-3M, 31.7 µM (inactive); with RPMI-8226 it was 3.29 µM (inactive); with SF-295 it was 0.536 µM (active); in the assay on HCC 2998, > 20.3 µM (inactive); in the assay on SF-268 it was 1.18 µM (inactive). Besides, in the assay with HT-29, the GI50 is 3.17 µM (inactive).

Consider `CC(NC(=O)C(N)Cc1ccccc1)C(=O)NC(Cc1ccc(O)cc1)C(=O)NC(Cc1c[nH]c2ccccc12)C(=O)NC(CCCCN)C(=O)NC(C(=O)NC(C)C(=O)NC(Cc1ccc2ccccc2c1)C(N)=O)C(C)C` (stereo not drawn) (H-FAYWKVA[2Nal]-NH2; configuration not given here), for which the GI50 with NCI-H23, with EKVX, in the assay on SK-MEL-5, in the assay with HL-60, with IGROV-1 and in the assay with UACC-257 was > 12.5 µM (inactive) in each case. Moreover, the GI50 is > 12.5 µM (inactive) in the assay on RXF 393; > 12.5 µM (inactive) with KM12; > 12.5 µM (inactive) with MDA-MB-435; > 12.5 µM (inactive) with OVCAR-5; greater than 12.5 µM in the assay on HCT-15; 28.1 µM (inactive) in the assay on SNB-75. Further, the GI50 in the assay with UO-31, in the assay on Malme-3M, with RPMI-8226, in the assay on SF-295, with HCC 2998 and in the assay with SF-268 was > 12.5 µM (inactive) each time. In addition, the GI50 with HT-29 is > 12.5 µM (inactive).
